The target in experiment [1] is T1, Interleukin-8 (Homo sapiens, UniProt P10145).
T1 sequence (P10145 whole entry): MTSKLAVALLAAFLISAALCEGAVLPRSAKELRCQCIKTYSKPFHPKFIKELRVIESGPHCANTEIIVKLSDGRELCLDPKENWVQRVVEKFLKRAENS
The experiment in a line: Dose Response confirmation of uHTS small molecule hits for cystic fibrosis induced NFkb Inhibitors in a TNFa-induced IL8 counterscreen. Type of experiment: functional. The conditions noted are these: read-out: IC50_Mean. In general terms: The purpose of a counterscreen is to sort out artefacts and off-target activity.

Experiment [2] addresses T1, Interleukin-8. The experiment in a line: Dose Response confirmation of uHTS small molecule hits for cystic fibrosis induced NFkb Inhibitors in a PAF-induced IL8 counterscreen. The experiment is classed as functional. The settings on record: read-out: IC50_Mean.
Experiment [3] is described as follows: ARNT/TACC3 interaction disruptors, potency, confirmation, biochemical, AlphaScreen, cherry-picked samples (AID 651703).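 Note: His-tagged ARNT PAS-B domain paired with GST-TACC3 E629A dimer coactivator fragment; potency of inhibitors that break up the complex and lower AlphaScreen signal.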 The experiment is classed as functional, Homo sapiens. (Alpha assays give light when donor and acceptor beads are brought close together.)
In experiment [4] the target is Ras and Rab interactor 1/Tyrosine-protein kinase ABL1 (Homo sapiens, UniProt P00519+Q13671). The experiment is classed as functional.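 Note: biochemical TR-FRET dose-response test measuring inhibition of binding between Rin1 and Abl proteins.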
Ras and Rab interactor 1/Tyrosine-protein kinase ABL1, sequence (P00519 whole entry): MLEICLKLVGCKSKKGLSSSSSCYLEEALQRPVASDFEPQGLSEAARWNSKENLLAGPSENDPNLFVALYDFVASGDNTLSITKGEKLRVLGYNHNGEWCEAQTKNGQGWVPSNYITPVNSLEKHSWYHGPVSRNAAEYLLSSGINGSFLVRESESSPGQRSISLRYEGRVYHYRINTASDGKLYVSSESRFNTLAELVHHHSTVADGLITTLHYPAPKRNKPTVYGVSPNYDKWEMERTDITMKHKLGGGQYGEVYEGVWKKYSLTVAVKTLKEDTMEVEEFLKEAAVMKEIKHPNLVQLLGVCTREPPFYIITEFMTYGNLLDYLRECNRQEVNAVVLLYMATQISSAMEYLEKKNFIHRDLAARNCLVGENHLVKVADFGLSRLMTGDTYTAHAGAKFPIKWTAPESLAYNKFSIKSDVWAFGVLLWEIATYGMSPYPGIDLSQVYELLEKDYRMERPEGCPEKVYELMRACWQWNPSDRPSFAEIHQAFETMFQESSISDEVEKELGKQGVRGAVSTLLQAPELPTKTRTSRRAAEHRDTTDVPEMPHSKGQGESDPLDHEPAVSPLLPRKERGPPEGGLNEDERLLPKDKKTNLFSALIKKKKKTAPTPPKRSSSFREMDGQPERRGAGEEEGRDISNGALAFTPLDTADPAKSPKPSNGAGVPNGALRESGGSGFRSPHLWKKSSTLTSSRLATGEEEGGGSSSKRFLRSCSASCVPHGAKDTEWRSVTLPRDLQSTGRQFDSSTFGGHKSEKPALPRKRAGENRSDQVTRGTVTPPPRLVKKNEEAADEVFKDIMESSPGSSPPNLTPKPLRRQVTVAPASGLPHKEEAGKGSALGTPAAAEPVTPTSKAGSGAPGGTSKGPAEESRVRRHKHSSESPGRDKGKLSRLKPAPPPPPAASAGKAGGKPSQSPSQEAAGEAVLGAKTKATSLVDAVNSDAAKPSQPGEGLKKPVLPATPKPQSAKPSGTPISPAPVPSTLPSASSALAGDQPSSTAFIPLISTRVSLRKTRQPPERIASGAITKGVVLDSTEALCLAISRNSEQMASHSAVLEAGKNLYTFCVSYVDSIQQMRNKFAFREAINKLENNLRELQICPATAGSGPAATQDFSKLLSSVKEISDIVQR
Ras and Rab interactor 1/Tyrosine-protein kinase ABL1, sequence (Q13671 whole entry): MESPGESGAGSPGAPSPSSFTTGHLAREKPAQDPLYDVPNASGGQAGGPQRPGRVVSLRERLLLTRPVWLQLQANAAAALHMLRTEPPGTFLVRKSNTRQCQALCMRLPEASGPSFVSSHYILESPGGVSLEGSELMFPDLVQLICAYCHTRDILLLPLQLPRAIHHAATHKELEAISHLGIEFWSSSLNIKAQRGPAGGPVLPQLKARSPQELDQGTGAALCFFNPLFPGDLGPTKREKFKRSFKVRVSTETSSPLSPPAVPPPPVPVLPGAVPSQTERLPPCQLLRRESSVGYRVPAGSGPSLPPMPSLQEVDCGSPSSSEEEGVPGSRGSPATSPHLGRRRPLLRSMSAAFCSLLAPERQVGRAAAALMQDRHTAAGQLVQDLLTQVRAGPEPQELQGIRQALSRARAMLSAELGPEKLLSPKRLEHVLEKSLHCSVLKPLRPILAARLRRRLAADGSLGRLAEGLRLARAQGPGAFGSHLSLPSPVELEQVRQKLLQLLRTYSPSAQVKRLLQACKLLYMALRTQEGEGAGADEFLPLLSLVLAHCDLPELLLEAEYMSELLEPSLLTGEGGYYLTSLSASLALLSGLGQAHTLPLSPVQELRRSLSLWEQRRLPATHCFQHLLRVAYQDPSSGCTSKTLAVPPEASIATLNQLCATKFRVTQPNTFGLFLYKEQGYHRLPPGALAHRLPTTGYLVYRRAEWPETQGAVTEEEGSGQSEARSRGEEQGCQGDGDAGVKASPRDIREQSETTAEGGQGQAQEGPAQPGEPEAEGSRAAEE
In experiment [5] the target is Nuclear receptor subfamily 5 group A member 2 (Homo sapiens, UniProt O00482). The experiment is classed as functional, cell-based.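 Note: HEK293T cells transfected with LRH-1 and a StAR promoter luciferase reporter; potency for inhibitors that lower LRH-1 driven reporter light.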
Nuclear receptor subfamily 5 group A member 2, sequence (O00482 whole entry): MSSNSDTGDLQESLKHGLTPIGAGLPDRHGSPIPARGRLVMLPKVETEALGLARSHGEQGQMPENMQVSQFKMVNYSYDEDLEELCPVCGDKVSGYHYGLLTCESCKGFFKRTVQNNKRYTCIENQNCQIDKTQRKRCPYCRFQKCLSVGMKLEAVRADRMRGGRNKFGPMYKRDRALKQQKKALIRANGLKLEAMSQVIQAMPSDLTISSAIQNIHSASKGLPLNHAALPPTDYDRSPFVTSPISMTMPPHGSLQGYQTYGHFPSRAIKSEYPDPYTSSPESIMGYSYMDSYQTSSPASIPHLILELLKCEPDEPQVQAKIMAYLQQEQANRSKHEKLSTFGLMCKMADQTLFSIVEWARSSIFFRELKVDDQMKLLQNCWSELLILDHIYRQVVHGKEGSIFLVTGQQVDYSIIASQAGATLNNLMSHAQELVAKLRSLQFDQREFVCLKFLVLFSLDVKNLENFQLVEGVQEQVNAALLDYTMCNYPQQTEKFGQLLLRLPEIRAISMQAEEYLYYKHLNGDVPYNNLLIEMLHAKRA
The next experiment addresses Steroidogenic factor 1 (Homo sapiens, UniProt Q13285). The experiment in a line: Counterscreen for inverse agonists of the liver receptor homolog-1 (LRH-1; NR5A2): Luminescence-based cell-based high throughput dose response assay to identify inverse agonists of the Steroidogenic Factor 1 Nuclear Receptor (SF1; NR5A1). Type of experiment: functional.
A short description of experiment [6]: StAR promoter reporter inhibition counter-screen, dose response, counter-screen for LRH-1 inverse agonist project, cell-based, luminescence, luciferase reporter (AID 651969). Type of experiment: functional.
Experiment [7] relates to BJ. The experiment in a line: cytotoxicity toward BJ-TERT fibroblasts, dose response, cell-based, RAS-independent, luminescence (AID 1933). Type of experiment: functional. The conditions noted are these: Homo sapiens.
Experiment [8] concerns BJ. The experiment is described as follows: cells. Type of experiment: functional, cell-based. The settings on record: Homo sapiens.
Experiment [9] relates to BJ. The experiment is described as follows: cytotoxicity toward BJ-TERT-LT-ST fibroblasts, dose response, cell-based, RAS-independent, luminescence (AID 1935).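 Note: BJ fibroblasts immortalized with TERT plus LT and ST oncogenes.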 The conditions noted are these: Homo sapiens. The experiment is classed as functional.
Experiment [10] is described as follows: cytotoxicity toward DRD oncogenic fibroblasts, dose response, cell-based, non-viral oncogenic, luminescence (AID 1934). The experiment is classed as functional. The settings on record: Homo sapiens.
Experiment [11] has as its system BJ. The experiment is described as follows: cytotoxicity toward Ras-transformed BJeLR fibroblasts, dose response, cell-based, alamar blue fluorescence, cherrypicked samples (AID 2631).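 Note: confirmatory dose-response assay in RAS-dependent BJ fibroblasts engineered with TERT, LT and ST, with cytotoxicity read by fluorescence.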 Type of experiment: functional. The settings on record: Homo sapiens.
For experiment [12], the target named is T2, Oxysterols receptor LXR-beta (Homo sapiens, UniProt P55055).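 Note: Cell-based luminescence dose-response assay of agonist activity at LXR, run as a confirmatory counterscreen to a daf-12 agonist screen; HEK293 cells with Gal4-LXR fusion and GAL4-driven luciferase reporter; agonist potency from rising luciferase signal of a Gal4-LXR reporter.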
T2 sequence (P55055 whole entry): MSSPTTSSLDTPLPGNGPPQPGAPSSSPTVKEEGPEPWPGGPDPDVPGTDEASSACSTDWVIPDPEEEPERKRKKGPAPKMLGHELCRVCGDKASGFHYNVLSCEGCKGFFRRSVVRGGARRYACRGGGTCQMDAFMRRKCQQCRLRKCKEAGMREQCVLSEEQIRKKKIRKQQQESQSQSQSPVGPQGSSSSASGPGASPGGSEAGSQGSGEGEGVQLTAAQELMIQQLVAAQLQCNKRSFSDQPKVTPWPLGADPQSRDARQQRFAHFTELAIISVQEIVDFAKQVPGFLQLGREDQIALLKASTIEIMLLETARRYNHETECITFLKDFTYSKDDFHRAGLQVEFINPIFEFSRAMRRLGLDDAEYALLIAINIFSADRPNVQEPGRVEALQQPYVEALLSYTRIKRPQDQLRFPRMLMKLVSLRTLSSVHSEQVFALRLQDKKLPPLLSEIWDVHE
Type of experiment: functional, cell-based.

Experiment [13] can be described thus: inhibitors of firefly luciferase expression or activity, dose response, H4 neuroglioma cells, luminescence (AID 1990). Type of experiment: functional, cell-based.
A short description of experiment [14]: Luminescence Cell-Based Dose Response HTS to Identify Inhibitors of 5'UTR Stem-Loop Driven Prion Protein mRNA Translation in H4 Neuroglioblastoma Cells. [Related pubchem assays: 1827 (Project Summary), 1813 (Primary HTS)]. The experiment is classed as functional.
Experiment [15] in a line: inhibitors of SNCA 5'UTR-driven reporter translation, confirmation, H4 neuroglioma cells, luminescence (AID 1988). Type of experiment: functional, cell-based.
A short description of experiment [16]: cytotoxicity in HEK-293T cells, dose response, cytotoxicity control for TCR NF-kB inhibitor project, luminescence, T-cell screen hits (AID 489026).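 Note: cells exposed to compound about 14 hours before the viability readout.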 The experiment is classed as functional, cell-based.
Experiment [17] relates to Streptococcus sp. 'group A'. The experiment in a line: growth inhibition of control SK(-) GAS strain, dose response, counter-screen for streptokinase expression inhibitor project, luminescence, kanamycin, BacTiterGlo, confirmation (AID 1900). The experiment is classed as functional, organism-based.
Another experiment addresses T3, Streptokinase A (Streptococcus pyogenes serotype M1, UniProt P10520).
T3 sequence (P10520 whole entry): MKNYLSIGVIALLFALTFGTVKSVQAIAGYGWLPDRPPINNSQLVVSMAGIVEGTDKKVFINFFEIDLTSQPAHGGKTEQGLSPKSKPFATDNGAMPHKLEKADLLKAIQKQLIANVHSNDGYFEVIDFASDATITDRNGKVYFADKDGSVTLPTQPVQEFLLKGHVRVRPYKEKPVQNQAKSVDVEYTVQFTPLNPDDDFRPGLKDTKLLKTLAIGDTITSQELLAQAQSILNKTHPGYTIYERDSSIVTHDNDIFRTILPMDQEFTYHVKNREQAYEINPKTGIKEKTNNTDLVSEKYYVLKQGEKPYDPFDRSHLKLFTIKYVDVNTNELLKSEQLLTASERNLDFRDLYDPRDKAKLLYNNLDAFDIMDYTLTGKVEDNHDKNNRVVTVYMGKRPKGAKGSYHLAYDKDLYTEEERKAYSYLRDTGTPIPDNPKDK
The experiment is described as follows: S. pyogenes streptokinase expression inhibitors, potency, dose response, plasminogen activation absorbance, OD405 (AID 1914).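 Note: secreted streptokinase activity via plasminogen activation per viability signal from cell pellet.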 The experiment is classed as functional, Streptococcus pyogenes M1 GAS.

Another experiment has as its system Streptococcus. The experiment is described as follows: Group A Streptococcus viability loss, dose response, counter-screen for streptokinase expression inhibitor project, luminescence, BacTiterGlo (AID 1915).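 Note: potency for reduction of bacterial viability or growth.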 The experiment is classed as functional, organism-based.
Experiment [18] has as its target DNA dC->dU-editing enzyme APOBEC-3G (Homo sapiens, UniProt Q9HC16). The experiment is described as follows: APOBEC3G deaminase inhibitors, SAR follow-up, biochemical, fluorescence, single-stranded DNA substrate (AID 602136). The experiment is classed as functional. The conditions noted are these: read-out: IC50_Mean.
For experiment [19], the target named is DNA dC->dU-editing enzyme APOBEC-3A (Homo sapiens, UniProt P31941). The experiment is described as follows: SAR analysis of small molecule inhibitors of APOBEC3A DNA Deaminase via a fluorescence-based single-stranded DNA deaminase assay. Type of experiment: functional. The conditions noted are these: read-out: IC50_Mean.
DNA dC->dU-editing enzyme APOBEC-3A, sequence (P31941 whole entry): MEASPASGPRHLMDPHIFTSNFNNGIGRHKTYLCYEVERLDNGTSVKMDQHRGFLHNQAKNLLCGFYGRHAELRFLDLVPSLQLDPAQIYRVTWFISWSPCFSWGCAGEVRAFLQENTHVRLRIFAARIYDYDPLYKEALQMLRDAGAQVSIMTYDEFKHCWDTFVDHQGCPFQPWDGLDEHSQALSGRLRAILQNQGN
Experiment [20] concerns the target Mitochondrial peptide methionine sulfoxide reductase (Bos taurus, UniProt P54149). The experiment in a line: Absorbance-based biochemical high throughput dose response assay for activators of Methionine sulfoxide reductase A (MsrA). The experiment is classed as functional.
A short description of experiment [21]: THP-1 cell cytotoxicity, dose response, cytotoxicity control for Vif-APOBEC3G degradation inhibitor project, THP-1 cells (AID 1117359). The conditions noted are these: Human immunodeficiency virus 1, THP-1. Type of experiment: functional.
Experiment [22] concerns the target T4, Low molecular weight phosphotyrosine protein phosphatase (Homo sapiens, UniProt P24666).
T4 sequence (P24666 whole entry): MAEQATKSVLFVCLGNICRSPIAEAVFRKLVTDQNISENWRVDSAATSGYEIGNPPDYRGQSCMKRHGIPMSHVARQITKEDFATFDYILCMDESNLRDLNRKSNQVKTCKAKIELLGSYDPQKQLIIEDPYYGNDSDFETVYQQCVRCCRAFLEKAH
Type of experiment: functional. The conditions noted are these: read-out: IC50_Mean.

Experiment [23] deals with T4, Low molecular weight phosphotyrosine protein phosphatase. The experiment is classed as functional. The conditions noted are these: read-out: IC50_Mean. This is another data set of the same source.
The target in experiment [24] is T5, Heat shock factor protein 1 (Mus musculus, UniProt P38532).
T5 sequence (P38532 whole entry): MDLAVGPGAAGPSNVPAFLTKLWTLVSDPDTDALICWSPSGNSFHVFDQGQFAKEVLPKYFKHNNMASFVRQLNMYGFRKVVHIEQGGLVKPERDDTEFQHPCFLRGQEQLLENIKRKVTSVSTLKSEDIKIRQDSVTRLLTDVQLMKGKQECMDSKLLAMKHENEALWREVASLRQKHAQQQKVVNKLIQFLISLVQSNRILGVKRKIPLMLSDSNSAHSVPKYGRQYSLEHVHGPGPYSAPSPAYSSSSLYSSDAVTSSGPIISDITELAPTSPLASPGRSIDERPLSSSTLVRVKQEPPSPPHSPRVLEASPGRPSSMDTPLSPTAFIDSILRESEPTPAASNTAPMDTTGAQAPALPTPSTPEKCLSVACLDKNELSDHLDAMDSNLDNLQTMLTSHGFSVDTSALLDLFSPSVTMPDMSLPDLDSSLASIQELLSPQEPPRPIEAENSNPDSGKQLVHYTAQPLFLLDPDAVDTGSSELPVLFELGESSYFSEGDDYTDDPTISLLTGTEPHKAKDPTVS
The experiment is described as follows: inhibition of MG132-induced HSE-luciferase signal, confirmation, cell-based, NIH3T3, luminescence, dose retest (AID 2382).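 Note: NIH3T3 fibroblasts with HSF1-driven luciferase reporter stressed by proteasome inhibitor MG132; luminescence from HSF1-driven luciferase expression after 8 hours of MG132 stress.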 Type of experiment: functional.

Experiment [25] is described as follows: AlphaScreen signal interference compounds, dose response, artefact control for ARNT-TACC3 interaction inhibitor project, biochemical, luminescence, cherry-pick (AID 651705).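 Note: AlphaScreen bead proximity signal that flags compounds interfering with the detection technology; potency reflects signal decrease which marks the compound as an assay artifact.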 Type of experiment: functional.

This is an account of results in ChEMBL document CHEMBL1201862, “PubChem BioAssay data set” (2004).

Activity calls are given as the source filed them.

DNA dC->dU-editing enzyme APOBEC-3G, sequence (Q9HC16 whole entry): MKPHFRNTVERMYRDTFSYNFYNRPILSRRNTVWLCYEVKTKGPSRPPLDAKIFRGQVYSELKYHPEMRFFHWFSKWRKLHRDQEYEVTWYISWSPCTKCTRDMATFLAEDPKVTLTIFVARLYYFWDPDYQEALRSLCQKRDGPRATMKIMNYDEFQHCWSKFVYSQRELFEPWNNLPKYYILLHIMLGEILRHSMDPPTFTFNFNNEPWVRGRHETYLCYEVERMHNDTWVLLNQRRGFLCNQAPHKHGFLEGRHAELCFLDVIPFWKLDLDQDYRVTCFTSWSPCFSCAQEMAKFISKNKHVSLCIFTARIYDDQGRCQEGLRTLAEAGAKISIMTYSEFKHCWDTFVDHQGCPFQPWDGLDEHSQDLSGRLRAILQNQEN
Steroidogenic factor 1, sequence (Q13285 whole entry): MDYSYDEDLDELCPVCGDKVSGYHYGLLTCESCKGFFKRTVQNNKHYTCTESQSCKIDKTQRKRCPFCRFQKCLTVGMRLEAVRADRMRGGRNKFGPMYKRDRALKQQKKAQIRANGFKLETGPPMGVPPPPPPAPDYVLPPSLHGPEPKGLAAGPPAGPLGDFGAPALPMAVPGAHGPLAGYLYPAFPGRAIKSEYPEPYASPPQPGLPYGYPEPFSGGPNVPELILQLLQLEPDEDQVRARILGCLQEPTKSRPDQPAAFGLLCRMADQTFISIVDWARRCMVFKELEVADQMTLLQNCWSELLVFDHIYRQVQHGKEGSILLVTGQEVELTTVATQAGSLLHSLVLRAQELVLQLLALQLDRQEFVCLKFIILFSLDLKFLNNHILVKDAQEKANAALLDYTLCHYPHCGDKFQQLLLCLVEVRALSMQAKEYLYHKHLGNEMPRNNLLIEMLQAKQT
Mitochondrial peptide methionine sulfoxide reductase, sequence (P54149 whole entry): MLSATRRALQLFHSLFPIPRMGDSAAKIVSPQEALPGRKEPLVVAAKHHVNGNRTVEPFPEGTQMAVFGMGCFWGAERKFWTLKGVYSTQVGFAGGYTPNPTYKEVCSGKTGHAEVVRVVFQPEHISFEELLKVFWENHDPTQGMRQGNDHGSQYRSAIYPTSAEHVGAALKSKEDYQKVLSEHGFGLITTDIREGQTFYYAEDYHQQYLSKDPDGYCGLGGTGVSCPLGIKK

As to `CS(=O)(=O)c1ccc2nc(NC(=O)CCS(=O)(=O)c3ccccc3)sc2c1`, the values for the IC50 on Interleukin-8 [1] and on Interleukin-8 [2] were 1.5 µM (active) and 1.36 µM (active), respectively.
As for `CC1=CC(C)(C)N(C(=O)C(C)N2C(=O)c3ccccc3C2=O)c2ccc(C)cc21` (stereo not given), the AC50 (usually the concentration at which the activity in the assay is half-maximal) in experiment [3] was 119 µM (active).
On to `CN1CCN(C(=O)CSc2nc(-c3ccncc3)ccc2C#N)CC1`, for which, in experiment [4], the IC50 is 39 µM (inactive).
For `NS(=O)(=O)c1ccc(CCNC(=O)COc2ccc3c4c(c(=O)oc3c2)CCC4)cc1`, the IC50 (in [5]; on Steroidogenic factor 1; in [6]) was 35.9 µM (inactive) each time.
With `COc1cccc(NC(=O)n2ncc3c(C)cccc32)c1`, the EC50 – broadly, the concentration that produces a half-maximal response – is 11.5 µM (active) with BJ [7]; 8.05 µM (active) in the experiment on BJ [8]; 18.2 µM (active) with BJ [9]; 6.62 µM (active) in [10]; > 133 µM (inactive) with BJ [11]; > 67.5 µM (inactive) in experiment [12]. Further, the EC50 in the experiment “cells” is > 67.5 µM (inactive).
As to `CC1=CC(C)(C)N(S(=O)(=O)c2ccc(C)cc2)c2cc(C)ccc21`, the EC50 in experiment [13] is 4.98 µM (inconclusive); with BJ [7], 1.34 µM (active); in [14], 9.84 µM (active); in [15] it was 4.44 µM (inconclusive); in the experiment on BJ [8], 2.65 µM (active); with BJ [9], 1.3 µM (inconclusive). The figures for the EC50 (in experiment [10]; in the experiment on BJ [11]) were 1.95 µM (active) and 0.353 µM (active), respectively. The IC50 in experiment [16] is > 80 µM (inactive).
As to `COc1ccc(-c2c[nH]nc2-c2ccc(OC)cc2)cc1`, the EC50 in [17] was 3.33 µM (active); on Streptokinase A, > 150 µM (not active); in the experiment on Streptococcus, 8.74 µM (active). For the same compound, the figures for the IC50 on Interleukin-8 [1] and at Interleukin-8 [2] were 3.57 µM (active) and 5.39 µM (active), respectively.
As for `CCC(C)(C)n1nnnc1CN1CCC(O)(c2cccc(C(F)(F)F)c2)CC1`, the figures for the IC50 (in experiment [5]; on Steroidogenic factor 1; in [6]) were 9.63 µM (active), 12.4 µM (inactive) and 35.9 µM (inactive), respectively.
For `O=C(CSc1nnc2scc(-c3ccccc3)n12)Nc1ccccc1F`, the IC50 in experiment [18] and in experiment [19] was > 99 µM (inactive) each time.
Consider `CCCn1c(=O)c2ccccc2n2c(SCC(=O)NCc3ccccc3)nnc12`, for which the IC50 in experiment [18] and in experiment [19] was > 99 µM (inactive) each time.
In the case of `O=[N+]([O-])c1cc(Br)c(O)c(/C=N/c2ccc(N3CCOCC3)cc2)c1`, in experiment [20], the EC50 is > 104 µM (inactive). In addition, the CC50 – broadly, the concentration giving 50% cytotoxicity – in [21] is > 40 µM (active).
In the case of `CCOc1ccccc1Nc1nc(Cl)nc(Nc2ccccc2OCC)n1`, the IC50 in experiment [18] and in [19] was > 99 µM (inactive) in each case.
As to `COCCNc1nc(NCc2ccc(NC(C)=O)cc2)c2sccc2n1`, the IC50 in [22] is 17.5 µM (active); in experiment [23] it was 15.4 µM (active).
`O=C(CN(Cc1ccccc1Cl)S(=O)(=O)c1ccc(Cl)cc1)N/N=C/c1ccc(C(=O)O)cc1`: in experiment [24], the EC50 is recorded as > 195 µM (not active). In addition, the AC50 was 84 µM (active) in [25] and 78.3 µM (active) in [3].
Take `C[C@]12CC[C@H](O)C[C@@H]1CC(=O)[C@@H]1[C@@H]2CC[C@]2(C)C(=O)CC[C@@H]12`: the IC50 in [4] is 33.8 µM (inactive).
